We go through 16 compounds from patent US20250179103A1, “6-OXODECAHYDROPYRROLO[1,2-A][1,5]DIAZOCINE AND 6-OXODECAHYDRO-4H-PYRROLO[2,1-D][1,5]THIAZOCINE DERIVATIVES AS STAT3 AND STAT6 MODULATORS FOR THE TREATMENT OF CANCER AND INFLAMMATORY CONDITIONS” (Recludix Pharma, Inc., priority 2022, published 2025).

Structures are written as SMILES.

Assay [1] concerns the target T1, Recombinant STAT3 protein (STAT3(G127-I722)) (Homo sapiens, UniProt P40763).
T1 construct: Recombinant STAT3 protein (STAT3(G127-I722))
Description: STAT3 Fluorescence Polarization (FP) Assay. As to conditions: STAT3(G127-I722) 25 nM, probe 5-FAM-GpYLPQTV-NH2 2 nM, 45-minute incubation. In kind it is binding. A digest of the protocol:
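Fluorescence polarization after a 45-min room-temperature incubation measured compound displacement of a 2 nM fluorescein-labelled phosphotyrosine peptide (5-FAM-GpYLPQTV-NH2) from 25 nM recombinant STAT3(G127-I722). Buffer was 10 mM HEPES pH 7.4 with 1% DMSO final. IC50s were fitted by nonlinear regression of mP against log concentration.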
(Fluorescence polarisation rises when a labelled molecule tumbles more slowly, as on binding a larger partner.)

Assay [2] has as its target T2, Recombinant STAT6 protein (STAT6(W123-T658)) (Homo sapiens, UniProt P42226).
T2 construct: Recombinant STAT6 protein (STAT6(W123-T658))
T2 sequence (P42226 123-658): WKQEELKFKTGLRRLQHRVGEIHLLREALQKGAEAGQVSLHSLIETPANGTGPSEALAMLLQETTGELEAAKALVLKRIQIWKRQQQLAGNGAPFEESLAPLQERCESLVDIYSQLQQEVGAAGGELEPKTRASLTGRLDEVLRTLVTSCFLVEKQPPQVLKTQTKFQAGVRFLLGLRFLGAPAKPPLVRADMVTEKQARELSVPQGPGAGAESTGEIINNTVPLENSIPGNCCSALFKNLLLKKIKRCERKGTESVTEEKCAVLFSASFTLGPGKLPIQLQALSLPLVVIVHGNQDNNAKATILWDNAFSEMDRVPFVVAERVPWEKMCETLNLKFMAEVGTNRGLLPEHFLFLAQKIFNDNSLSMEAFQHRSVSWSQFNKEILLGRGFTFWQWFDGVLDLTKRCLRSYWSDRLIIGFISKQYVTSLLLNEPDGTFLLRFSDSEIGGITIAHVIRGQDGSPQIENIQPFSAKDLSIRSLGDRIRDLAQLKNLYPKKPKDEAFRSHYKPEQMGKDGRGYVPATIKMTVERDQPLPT
Nature of the assay: STAT6 Fluorescence Polarization (FP) Assay. In kind it is binding. Conditions: STAT6(W123-T658) 250 nM, probe 5-FAM-ApYKPFQDLI-NH2 2 nM, 45-minute incubation. In short, it runs like this:
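Displacement of a fluorescent phosphotyrosine peptide (5-FAM-ApYKPFQDLI-NH2, 2 nM) from STAT6(W123-T658) (250 nM), 1% DMSO, pH 7.4 HEPES buffer. After 45 min at room temperature, polarization (mP) was plotted versus log compound concentration and fitted by nonlinear regression to give IC50.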

T1 sequence (P40763 127-722): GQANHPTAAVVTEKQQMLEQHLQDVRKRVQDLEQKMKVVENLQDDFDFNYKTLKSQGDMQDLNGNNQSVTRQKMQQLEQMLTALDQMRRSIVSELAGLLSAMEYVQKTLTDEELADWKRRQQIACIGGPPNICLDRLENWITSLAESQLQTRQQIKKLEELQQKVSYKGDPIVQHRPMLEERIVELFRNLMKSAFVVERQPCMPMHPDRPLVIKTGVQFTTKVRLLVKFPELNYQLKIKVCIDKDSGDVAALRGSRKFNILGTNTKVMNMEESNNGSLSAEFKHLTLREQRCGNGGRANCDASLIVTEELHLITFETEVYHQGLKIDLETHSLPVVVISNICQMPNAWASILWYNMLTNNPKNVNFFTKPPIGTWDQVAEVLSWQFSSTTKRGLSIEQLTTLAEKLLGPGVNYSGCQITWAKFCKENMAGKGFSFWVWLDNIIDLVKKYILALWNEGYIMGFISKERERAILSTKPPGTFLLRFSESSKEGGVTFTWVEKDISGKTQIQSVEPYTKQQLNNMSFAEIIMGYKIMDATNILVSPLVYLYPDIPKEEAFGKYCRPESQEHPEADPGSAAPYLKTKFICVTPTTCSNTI

As usually defined, the IC50 is the concentration needed to halve the response being measured. On to `CC(=O)N1CC[C@H]2CC[C@@H](C(=O)N3CC(C(=O)N4CCN(C)CC4)C3)N2C(=O)[C@@H](NC(=O)c2cc3cc(C(F)(F)P(=O)(O)O)ccc3s2)C1` [Compound 195, ((2-(((5S,8S,10aR)-3-acetyl-8-(3-(4-methylpiperazine-1-carbonyl)azetidine-1-carbonyl)-6-oxodecahydropyrrolo[1,2-a][1,5]diazocin-5-yl)carbamoyl)benzo[b]thiophen-5-yl)difluoromethyl)phosphonic acid], for which the IC50 in assay [1] is 1000 to 10000 nM; in assay [2], 0.3 to 3 µM.
On the same counts, the results for `CC(=O)N1CC[C@H]2CC[C@@H](C(=O)Nc3ccc(-c4ccccc4)cc3Cc3nccs3)N2C(=O)[C@@H](NC(=O)c2cc3cc(C(F)(F)P(=O)(O)O)ccc3s2)C1` [Compound 196, ((2-(((5S,8S,10aR)-3-acetyl-6-oxo-8-((3-(thiazol-2-ylmethyl)-[1,1′-biphenyl]-4-yl)carbamoyl)decahydropyrrolo[1,2-a][1,5]diazocin-5-yl)carbamoyl)benzo[b]thiophen-5-yl)difluoromethyl)phosphonic acid] are 100 to 1000 nM and 0.3 to 3 µM.
As to `CC(=O)N1CC[C@H]2CC[C@@H](C(=O)N3CCOc4cc(-c5ccccc5)ccc43)N2C(=O)[C@@H](NC(=O)c2cc3cc(C(F)(F)P(=O)(O)O)ccc3s2)C1` [Compound 197, ((2-(((5S,8S,10aR)-3-acetyl-6-oxo-8-(7-phenyl-3,4-dihydro-2H-benzo[b][1,4]oxazine-4-carbonyl)decahydropyrrolo[1,2-a][1,5]diazocin-5-yl)carbamoyl)benzo[b]thiophen-5-yl)difluoromethyl)phosphonic acid], the IC50 is 100 to 1000 nM in assay [1] and 0.3 to 3 µM in assay [2].
The corresponding values for `CNC(=O)Cc1cc(-c2ccccc2)ccc1NC(=O)[C@@H]1CC[C@@H]2CCN(C(C)=O)C[C@H](NC(=O)c3cc4cc(C(F)(F)P(=O)(O)O)ccc4s3)C(=O)N21` [Compound 198, ((2-(((5S,8S,10aR)-3-acetyl-8-((3-(2-(methylamino)-2-oxoethyl)-[1,1′-biphenyl]-4-yl)carbamoyl)-6-oxodecahydrpyrrolo[1,2-a][1,5]diazocin-5-yl)carbamoyl)benzo[b]thiophen-5-yl)difluoromethyl)phosphonic acid] are 100 to 1000 nM and 0.3 to 3 µM.
As to `CC(=O)N1CC[C@H]2CC[C@@H](C(=O)Nc3ccc4nnccc4c3)N2C(=O)[C@@H](NC(=O)c2ccc3ccc(C(F)(F)P(=O)(O)O)cc3c2)C1` [Compound 199, ((7-(((5S,8S,10aR)-3-acetyl-8-(cinnolin-6-ylcarbamoyl)-6-oxodecahydropyrrolo[1,2-a][1,5]diazocin-5-yl)carbamoyl)naphthalen-2-yl)difluoromethyl)phosphonic acid], the IC50 in assay [1] lay in the range of 1000 to 10000 nM; in assay [2], 0.3 to 3 µM.
Consider `CC(=O)N1CC[C@H]2CC[C@@H](C(=O)N3CCC[C@H]3Cc3ccccc3)N2C(=O)[C@@H](NC(=O)c2ccc3ccc(C(F)(F)P(=O)(O)O)cc3c2)C1` [Compound 200, ((7-(((5S,8S,10aR)-3-acetyl-8-((S)-2-benzylpyrrolidine-1-carbonyl)-6-oxodecahydropyrrolo[1,2-a][1,5]diazocin-5-yl)carbamoyl)naphthalen-2-yl)difluoromethyl)phosphonic acid], for which the IC50 lay in the range of 1000 to 10000 nM in assay [1] and 0.3 to 3 µM in assay [2].
The corresponding values for `CC(=O)N1CC[C@H]2CC[C@@H](C(=O)N(C)c3cccc(C(F)F)c3)N2C(=O)[C@@H](NC(=O)c2cc3cc(C(F)(F)P(=O)(O)O)ccc3s2)C1` [Compound 201, ((2-(((5S,8S,10aR)-3-acetyl-8-((3-(difluoromethyl)phenyl)(methyl)carbamoyl)-6-oxodecahydropyrrolo[1,2-a][1,5]diazocin-5-yl)carbamoyl)benzo[b]thiophen-5-yl)difluoromethyl)phosphonic acid] are 1000 to 10000 nM and 0.3 to 3 µM.
Regarding `CC(=O)N1CC[C@H]2CC[C@@H](C(=O)N(C)c3ccc(C(F)F)cc3)N2C(=O)[C@@H](NC(=O)c2cc3cc(C(F)(F)P(=O)(O)O)ccc3s2)C1` [Compound 202, ((2-(((5S,8S,10aR)-3-acetyl-8-((4-(difluoromethyl)phenyl)(methyl)carbamoyl)-6-oxodecahydropyrrolo[1,2-a][1,5]diazocin-5-yl)carbamoyl)benzo[b]thiophen-5-yl)difluoromethyl)phosphonic acid], the results for the IC50 in assay [1] and in assay [2] were 1000 to 10000 nM and 0.3 to 3 µM, respectively.
On the same counts, the results for `CC(=O)N1CC[C@H]2CC[C@@H](C(=O)N3CC(c4cccc(C#N)c4)C3)N2C(=O)[C@@H](NC(=O)c2cc3cc(C(F)(F)P(=O)(O)O)ccc3s2)C1` [Compound 208, ((2-(((5S,8S,10aR)-3-acetyl-8-(3-(3-cyanophenyl)azetidine-1-carbonyl)-6-oxodecahydropyrrolo[1,2-a][1,5]diazocin-5-yl)carbamoyl)benzo[b]thiophen-5-yl)difluoromethyl)phosphonic acid] are not above 100 nM and 0.3 to 3 µM.
The corresponding values for `O=C(N[C@H]1CCN(C(c2ccccc2)c2ccccc2)C[C@H]2CC[C@@H](C(=O)N3CC(c4cccnc4)C3)N2C1=O)c1cc2cc(C(F)(F)P(=O)(O)O)ccc2s1` [Compound 210, ((2-(((5S,8S,10aR)-2-benzhydryl-6-oxo-8-(3-(pyridin-3-yl)azetidine-1-carbonyl)decahydropyrrolo[1,2-a][1,4]diazocin-5-yl)carbamoyl)benzo[b]thiophen-5-yl)difluoromethyl)phosphonic acid] are not above 100 nM and 3 to 30 µM.
On the same counts, the results for `O=C(N[C@H]1CCNC[C@H]2CC[C@@H](C(=O)N3CC(c4cccnc4)C3)N2C1=O)c1cc2cc(C(F)(F)P(=O)(O)O)ccc2s1` [Compound 212, (difluoro(2-(((5S,8S,10aR)-6-oxo-8-(3-(pyridin-3-yl)azetidine-1-carbonyl)decahydropyrrolo[1,2-a][1,4]diazocin-5-yl)carbamoyl)benzo[b]thiophen-5-yl)methyl)phosphonic acid] are 1000 to 10000 nM and 3 to 30 µM.
Take `O=C(N[C@H]1CCN(C(=O)OCc2ccccc2)C[C@H]2CC[C@@H](C(=O)N3CC(c4cccnc4)C3)N2C1=O)c1cc2cc(C(F)(F)P(=O)(O)O)ccc2s1` [Compound 214, ((2-(((5S,8S,10aR)-2-((benzyloxy)carbonyl)-6-oxo-8-(3-(pyridin-3-yl)azetidine-1-carbonyl)decahydropyrrolo[1,2-a][1,4]diazocin-5-yl)carbamoyl)benzo[b]thiophen-5-yl)difluoromethyl)phosphonic acid]: the 50% inhibitory concentration (IC50) in assay [1] was not above 100 nM; in assay [2], 3 to 30 µM.
On the same counts, the results for `O=C(N[C@H]1CN(C(=O)CCc2ccccc2)CC[C@H]2CC[C@@H](C(=O)Nc3ccc(-c4ccccc4)cc3)N2C1=O)c1cc2cc(C(F)(F)P(=O)(O)O)ccc2[nH]1` [Compound 215, ((2-(((5S,8S,10aR)-8-([1,1′-biphenyl]-4-ylcarbamoyl)-6-oxo-3-(3-phenylpropanoyl)decahydropyrrolo[1,2a][1,5]diazocin-5-yl)carbamoyl)-1H-indol-5-yl)difluoromethyl)phosphonic acid] are 100 to 1000 nM and not above 0.3 µM.
The corresponding values for `C[C@H](C(=O)N1CC[C@H]2CC[C@@H](C(=O)N(C)c3ccccc3)N2C(=O)[C@@H](NC(=O)c2cc3cc(C(F)(F)P(=O)(O)O)ccc3[nH]2)C1)c1ccccc1` [Compound 216, (difluoro(2-(((5S,8S,10aR)-8-(methyl(phenyl)carbamoyl)-6-oxo-3-((S)-2-phenylpropanoyl)decahydropyrrolo[1,2 a][1,5]diazocin-5-yl)carbamoyl)-1H-indol-5-yl)methyl)phosphonic acid] are 1000 to 10000 nM and 0.3 to 3 µM.
On the same counts, the results for `C[C@@H](C(=O)N1CC[C@H]2CC[C@@H](C(=O)N(C)c3ccccc3)N2C(=O)[C@@H](NC(=O)c2cc3cc(C(F)(F)P(=O)(O)O)ccc3[nH]2)C1)c1ccccc1` [Compound 217, (difluoro(2-(((5S,8S,10aR)-8-(methyl(phenyl)carbamoyl)-6-oxo-3-((R)-2-phenylpropanoyl)decahydropyrrolo[1,2 a][1,5]diazocin-5-yl)carbamoyl)-1H-indol-5-yl)methyl)phosphonic acid] are more than 10000 nM and 0.3 to 3 µM.
For `CN(C(=O)[C@@H]1CC[C@@H]2CCN(CC(F)F)C[C@H](NC(=O)c3cc4cc(C(F)(F)P(=O)(O)O)ccc4[nH]3)C(=O)N21)c1ccccc1` [Compound 218, ((2-(((5S,8S,10aR)-3-(2,2-difluoroethyl)-8-(methyl(phenyl)carbamoyl)-6-oxodecahydropyrrolo[1,2-a][1,5]diazocin-5-yl)carbamoyl)-1H-indol-5-yl)difluoromethyl)phosphonic acid], the IC50 in assay [1] lay within 1000 to 10000 nM; in assay [2], 0.3 to 3 µM.
